Values of other authors in US11253534B2, “Method of preventing COVID-19 infection” (priority 2020, dated 2022).

Conditions: in vivo

## CCN(CCO)CCCC(C)Nc1ccnc2cc(Cl)ccc12 (stereo not shown) [hydroxychloroquine]
  half-life: up to 32 days
